Data: patent US20130143915A1, “TRIAZOLOPYRIDINES AS TYK2 INHIBITORS” (CELLZOME LIMITED, priority 2010, published 2013)

Tests used:
[1] = molecular target: T1, JAK2 (Homo sapiens, UniProt O60674); assay: Kinobeads assay, JAK2 (competition binding in mixed Molt4/Ramos cell lysate, dot blot detection)
T1 construct: endogenous in cells; host or cells: mixed Molt4/Ramos cell lysate (1:2)
Protocol: (§1) The compounds of the present invention as described in the previous examples were tested in a Kinobeads™ assay as described for ZAP-70 (WO-A 2007/137867). Briefly, test compounds (at various concentrations) and the affinity matrix with the immobilized aminopyrido-pyrimidine ligand 24 were added to cell lysate aliquots and allowed to bind to the proteins in the lysate sample. After the incubation time the beads with captured proteins were separated from the lysate. Bound proteins were then eluted and the presence of TYK2 and JAK2 was detected and quantified using specific antibodies in a dot blot procedure and the Odyssey infrared detection system. Dose response curves for individual kinases were generated and IC50 values calculated. Kinobeads™ assays have been previously described (WO-A 2007/137867; WO-A 2006/134056).
(§2) The affinity matrix was washed two times with 15 mL of 1×DP buffer containing 0.2% NP40 (IGEPAL® CA-630, Sigma, #13021) and then resuspended in 1×DP buffer containing 0.2% NP40 (3% beads slurry).
(§3) 5×DP buffer: 250 mM Tris-HCl pH 7.4, 25% Glycerol, 7.5 mM MgCl2, 750 mM NaCl, 5 mM Na3VO4; filter the 5×DP buffer through a 0.22 μm filter and store in aliquots at −80° C. The 5×DP buffer is diluted with H2O to 1×DP buffer containing 1 mM DTT and 25 mM NaF.
(§4) Stock solutions of test compounds were prepared in DMSO. In a 96 well plate 30 μL solution of diluted test compounds at 5 mM in DMSO were prepared. Starting with this solution a 1:3 dilution series (9 steps) was prepared. For control experiments (no test compound) a buffer containing 2% DMSO was used.
(§5) Molt4 cells (ATCC catalogue number CRL-1582) and Ramos cells (ATCC catalogue number CRL-1596) were grown in 1 L Spinner flasks (Integra Biosciences, #182101) in suspension in RPMI 1640 medium (Invitrogen, #21875-034) supplemented with 10% Fetal Bovine Serum (Invitrogen) at a density between 0.15×10^6 and 1.2×10^6 cells/mL. Cells were harvested by centrifugation, washed once with 1×PBS buffer (Invitrogen, #14190-094) and cell pellets were frozen in liquid nitrogen and subsequently stored at −80° C. Cells were homogenized in a Potter S homogenizer in lysis buffer: 50 mM Tris-HCl, 0.8% NP40, 5% glycerol, 150 mM NaCl, 1.5 mM MgCl2, 25 mM NaF, 1 mM sodium vanadate, 1 mM DTT, pH 7.5. One complete EDTA-free tablet (protease inhibitor cocktail, Roche Diagnostics, 1873580) per 25 mL buffer was added. The material was dounced 10 times using a mechanized POTTER S, transferred to 50 mL falcon tubes, incubated for 30 minutes on ice and spun down for 10 minutes at 20,000 g at 4° C. (10,000 rpm in Sorvall SLA600, precooled). The supernatant was transferred to an ultracentrifuge (UZ)-polycarbonate tube (Beckmann, 355654) and spun for 1 hour at 100.000 g at 4° C. (33.500 rpm in Ti50.2, precooled). The supernatant was transferred again to a fresh 50 mL falcon tube, the protein concentration was determined by a Bradford assay (BioRad) and samples containing 50 mg of protein per aliquot were prepared. The samples were immediately used for experiments or frozen in liquid nitrogen and stored frozen at −80° C.
(§6) Cell lysate (approximately 50 mg protein per plate) was thawed in a water bath at room temperature and then stored on ice. To the thawed cell lysate 1×DP 0.8% NP40 buffer containing protease inhibitors (1 tablet for 25 mL buffer; EDTA-free protease inhibitor cocktail; Roche Diagnostics 1873580) was added in order to reach a final protein concentration of 10 mg/mL total protein. The diluted cell lysate was stored on ice. Mixed Molt4/Ramos lysate was prepared by combining one volume of Molt4 lysate and two volumes of Ramos lysate (ratio 1:2).
(§7) To a 96 well filter plate (Multiscreen HTS, BV Filter Plates, Millipore #MSBVN1250) were
(§8) added per well: 100 μL affinity matrix (3% beads slurry), 3 μL of compound solution, and 50 μL of diluted lysate. Plates were sealed and incubated for 3 hours in a cold room on a plate shaker (Heidolph tiramax 1000) at 750 rpm. […]

[2] = molecular target: T2, TYK2 (Homo sapiens, UniProt P29597); assay: Kinobeads assay, TYK2 (competition binding in mixed Molt4/Ramos cell lysate, dot blot detection)
T2 construct: endogenous in cells; host or cells: mixed Molt4/Ramos cell lysate (1:2)
Protocol: as §1, §2, §3, §4, §5, §6, §7, §8

T1 sequence (O60674 whole entry): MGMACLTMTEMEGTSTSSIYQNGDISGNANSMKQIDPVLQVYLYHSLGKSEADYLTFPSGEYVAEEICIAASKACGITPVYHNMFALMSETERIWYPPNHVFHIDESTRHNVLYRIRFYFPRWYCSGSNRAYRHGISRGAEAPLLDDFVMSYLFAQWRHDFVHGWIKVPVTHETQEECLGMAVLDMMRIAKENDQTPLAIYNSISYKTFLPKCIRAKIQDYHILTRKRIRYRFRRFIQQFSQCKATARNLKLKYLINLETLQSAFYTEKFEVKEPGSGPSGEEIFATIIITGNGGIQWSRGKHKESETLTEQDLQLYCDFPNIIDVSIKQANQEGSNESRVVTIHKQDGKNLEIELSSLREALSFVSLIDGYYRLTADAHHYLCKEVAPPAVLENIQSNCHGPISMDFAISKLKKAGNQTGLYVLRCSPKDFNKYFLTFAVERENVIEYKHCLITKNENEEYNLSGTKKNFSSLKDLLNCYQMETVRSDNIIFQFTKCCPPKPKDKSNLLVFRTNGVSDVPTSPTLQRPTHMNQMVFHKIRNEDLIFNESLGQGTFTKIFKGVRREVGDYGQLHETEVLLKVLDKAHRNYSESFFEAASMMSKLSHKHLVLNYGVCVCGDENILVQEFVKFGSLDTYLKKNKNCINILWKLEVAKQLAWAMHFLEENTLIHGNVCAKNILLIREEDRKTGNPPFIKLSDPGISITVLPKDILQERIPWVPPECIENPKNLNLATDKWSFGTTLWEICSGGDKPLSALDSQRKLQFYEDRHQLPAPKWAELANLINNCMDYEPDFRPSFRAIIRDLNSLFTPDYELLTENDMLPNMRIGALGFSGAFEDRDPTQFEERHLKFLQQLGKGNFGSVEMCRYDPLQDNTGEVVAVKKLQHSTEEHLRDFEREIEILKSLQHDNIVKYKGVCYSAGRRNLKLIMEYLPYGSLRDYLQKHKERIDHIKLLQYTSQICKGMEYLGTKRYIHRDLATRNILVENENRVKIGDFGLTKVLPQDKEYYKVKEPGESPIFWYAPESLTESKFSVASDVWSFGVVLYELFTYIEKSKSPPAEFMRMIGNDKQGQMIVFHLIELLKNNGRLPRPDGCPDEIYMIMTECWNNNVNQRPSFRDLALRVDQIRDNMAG
T2 sequence (P29597 whole entry): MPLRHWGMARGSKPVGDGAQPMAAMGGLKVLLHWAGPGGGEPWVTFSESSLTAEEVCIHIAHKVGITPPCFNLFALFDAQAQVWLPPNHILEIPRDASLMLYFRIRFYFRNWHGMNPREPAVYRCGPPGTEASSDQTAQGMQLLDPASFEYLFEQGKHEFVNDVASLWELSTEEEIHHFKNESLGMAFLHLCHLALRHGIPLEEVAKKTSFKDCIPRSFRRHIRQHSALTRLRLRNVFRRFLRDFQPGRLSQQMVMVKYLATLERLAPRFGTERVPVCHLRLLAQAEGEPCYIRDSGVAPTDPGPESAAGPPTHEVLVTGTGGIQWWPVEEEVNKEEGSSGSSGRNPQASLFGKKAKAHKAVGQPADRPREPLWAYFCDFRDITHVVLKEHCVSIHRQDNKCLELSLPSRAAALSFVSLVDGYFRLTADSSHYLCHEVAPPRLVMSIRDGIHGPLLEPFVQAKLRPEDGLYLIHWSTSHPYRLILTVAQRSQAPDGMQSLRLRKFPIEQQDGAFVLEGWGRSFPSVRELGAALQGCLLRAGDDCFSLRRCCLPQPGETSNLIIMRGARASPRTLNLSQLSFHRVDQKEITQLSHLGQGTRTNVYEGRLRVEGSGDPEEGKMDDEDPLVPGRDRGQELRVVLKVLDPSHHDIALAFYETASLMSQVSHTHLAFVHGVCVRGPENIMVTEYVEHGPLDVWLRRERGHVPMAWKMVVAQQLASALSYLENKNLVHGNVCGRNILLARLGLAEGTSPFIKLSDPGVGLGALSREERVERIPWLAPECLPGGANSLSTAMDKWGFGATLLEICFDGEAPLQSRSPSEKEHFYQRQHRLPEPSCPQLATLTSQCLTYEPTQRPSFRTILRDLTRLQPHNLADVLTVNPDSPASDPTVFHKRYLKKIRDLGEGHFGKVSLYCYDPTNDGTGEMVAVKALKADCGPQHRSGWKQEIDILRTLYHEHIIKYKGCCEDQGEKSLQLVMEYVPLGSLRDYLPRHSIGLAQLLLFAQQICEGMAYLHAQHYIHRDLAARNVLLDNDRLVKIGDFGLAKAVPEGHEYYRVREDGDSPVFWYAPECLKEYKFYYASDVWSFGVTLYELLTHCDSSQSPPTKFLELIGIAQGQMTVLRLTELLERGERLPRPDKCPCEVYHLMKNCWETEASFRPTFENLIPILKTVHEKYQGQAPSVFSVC

SMILES	IC50 [1]	IC50 [2]
COc1ccc(-c2cccc3nc(NC(=O)C4CC4)nn23)c(F)c1 [Example 1, N-(5-(2-fluoro-4-methoxyphenyl)-[1,2,4]triazolo[1,5-a]pyridin-2-yl)cyclopropane carboxamide]	> 10000 nM	100 to 1000 nM
O=C(Nc1nc2cccc(-c3ccc(Cl)cc3Cl)n2n1)C1CC1 [Example 2, N-(5-(2,4-dichlorophenyl)-[1,2,4]triazolo[1,5-a]pyridin-2-yl)cyclopropanecarboxamide]	> 10000 nM	100 to 1000 nM
COc1ccc(-c2cccc3nc(NC(=O)C4CC4)nn23)c(C(F)(F)F)c1 [Example 3, N-(5-(4-methoxy-2-(trifluoromethyl)phenyl)-[1,2,4]triazolo[1,5-a]pyridin-2-yl)cyclopropanecarboxamide]	> 10000 nM	1000 to 10000 nM
COc1ccc(-c2cccc3nc(NC(=O)C4CC4)nn23)c(Cl)c1 [Example 4, N-(5-(2-chloro-4-methoxyphenyl)-[1,2,4]triazolo[1,5-a]pyridin-2-yl)cyclopropanecarboxamide]	> 10000 nM	100 to 1000 nM
CS(=O)(=O)c1ccc(-c2cccc3nc(NC(=O)C4CC4)nn23)c(F)c1 [Example 5, N-(5-(2-fluoro-4-(methylsulfonyl)phenyl)-[1,2,4]triazolo[1,5-a]pyridin-2-yl)cyclopropanecarboxamide]	> 10000 nM	100 to 1000 nM
Nc1ccc(-c2cccc3nc(NC(=O)C4CC4)nn23)c(Cl)c1 [Example 6, N-(5-(4-amino-2-chlorophenyl)-[1,2,4]triazolo[1,5-a]pyridin-2-yl)cyclopropanecarboxamide]	> 10000 nM	100 to 1000 nM
Nc1ccc(-c2cccc3nc(NC(=O)C4CC4)nn23)c(F)c1 [Example 7, N-(5-(4-amino-2-fluorophenyl)-[1,2,4]triazolo[1,5-a]pyridin-2-yl)cyclopropanecarboxamide]	> 10000 nM	100 to 1000 nM
CS(=O)(=O)Nc1ccc(-c2cccc3nc(NC(=O)C4CC4)nn23)c(Cl)c1 [Example 8, N-(5-(2-chloro-4-(methylsulfonamido)phenyl)-[1,2,4]triazolo[1,5-a]pyridin-2-yl)cyclopropanecarboxamide]	> 10000 nM	100 to 1000 nM
CS(=O)(=O)Nc1ccc(-c2cccc3nc(NC(=O)C4CC4)nn23)c(F)c1 [Example 9, N-(5-(2-fluoro-4-(methylsulfonamido)phenyl)-[1,2,4]triazolo[1,5-a]pyridin-2-yl)cyclopropanecarboxamide]	> 10000 nM	100 to 1000 nM
COc1ccc(-c2cccc3nc(NC(=O)C4CC4)nn23)c(C)c1 [Example 10, N-(5-(4-methoxy-2-methylphenyl)-[1,2,4]triazolo[1,5-a]pyridin-2-yl)cyclopropanecarboxamide]	> 10000 nM	100 to 1000 nM
O=C(Nc1nc2cccc(-c3ccc(NS(=O)(=O)C4CC4)cc3Cl)n2n1)C1CC1 [Example 11]	> 10000 nM	< 100 nM
Cc1ccc(-c2cccc3nc(NC(=O)C4CC4)nn23)c(C)c1 [Example 12, N-(5-(2,4-dimethylphenyl)-[1,2,4]triazolo[1,5-a]pyridin-2-yl)cyclopropanecarboxamide]	> 10000 nM	100 to 1000 nM
